Laboratory results: patent US6420563B1, “Small molecule modulators of G protein-coupled receptor six” (Arena Pharmaceuticals, Inc., priority 1998, dated 2002)
Where two headings read alike, the source gives them in different places.

Tests used:
GPR6:Gsα-Fusion Protein = molecular target: T1, GPR6:Gsα-Fusion Protein (Homo sapiens, UniProt P46095); assay: [35S]GTPγS membrane binding assay (Example 4A); assay type: biochemical
T1 construct: expressed in transfected cells
Description: The assay plates were then centrifuged at 400 rpm for 15 minutes at room temperature and then subsequently aspirated and counted in a scintillation counter.
Membranes expressing the GPCR6:Gsα-Fusion Protein (see Example 2) and for use in the direct identification of candidate compounds as inverse agonists, agonists or partial agonists were prepared as follows:
All materials were kept on ice throughout the procedure. Firstly, the media was aspirated from a confluent monolayer of cells, followed by rinse with 10 ml cold PBS, followed by aspiration. Thereafter, 5 ml of membrane Scrape Buffer was added to scrape cells; this was followed by transfer of cellular extract into 50 ml centrifuge tubes (centrifuged at 20,000 rpm for 17 minutes at 4° C.). Thereafter, the supernatant was aspirated and the pellet was resuspended in 30 ml Membrane Wash Buffer followed by centrifuge at 20,000 rpm for 17 minutes at 4° C. The supernatant was then aspirated and the pellet resuspended in Binding Buffer. This was then homogenized using a Brinkman polytron™ homogenizer (15-20 second bursts until the all material was in suspension). This is referred to herein as “Membrane Protein”.
Candidate compounds (Tripos, Inc., St. Louis, Mo.) were received in 96-well plates (these can be frozen at −80° C.). Membrane Protein (or membranes with expression vector excluding the GPR6:Gsα-Fusion Protein, as control), were homogenized briefly until in suspension. Protein concentration was then determined using the Bradford Protein Assay set forth above. […] Thereafter, 100 ul GDP Buffer was added to each well of a Wallac Scintistrip™ (Wallac). A 5 ul pin-tool was then used to transfer 5 ul of a candidate compound into such well (i.e., 5 ul in total assay volume of 200 ul is a 1:40 ratio such that the final screening concentration of the candidate compound is 10 uM). Again, to avoid contamination, after each transfer step the pin tool was rinsed in three reservoirs comprising water (1×), ethanol (1×) and water (2×)—excess liquid should be shaken from the tool after each rinse and dried with paper towels and kimwipes™. Thereafter, 50 ul of Membrane Protein was added to each well (a control well comprising membranes without the GPCR Fusion Protein is also utilized), and pre-incubated for 5-10 minutes at room temperature (the plates were covered with foil in that the candidate compounds obtained from Tripos are light sensitive). Thereafter, 50 ul of [^35S]GTPγS (0.6 nM) in Binding Buffer was added to each well, followed by incubation on a shaker for 60 minutes at room temperature (again, in this example, plates were covered with foil). The assay was then stopped by spinning of the plates at 4000 RPM for 15 minutes at 22° C. The plates were then aspirated with an 8 channel manifold and sealed with plastic plate covers. The plates were then read on a Wallac 1450 using setting “Prot. #37” (as per manufacturer instructions).
The initial or “primary” screen designed to directly identify, e.g., human GPR6 receptor inverse agonists, consisted of the membrane-based GTPγS binding assay of Example 4A utilizing membranes prepared from 293 stable cells. Candidate compounds directly identified as inhibiting receptor-mediated increases in GTPγS as set forth below were considered active “leads”.
It is preferred that following such direct identification, IC50 (inverse agonist) or EC50 (agonist) values be determined; those having ordinary skill in the art are credited with utilizing IC50 and EC50 assay protocols of choice. FIG. 4 provides a representative IC50 curve for compound ARE112 using the assay protocol of Example 4A.

GPR6 = molecular target: T2, GPR6 (Homo sapiens, UniProt P46095); assay: membrane-based cyclic AMP confirmation assay (Example 4C); assay type: biochemical; settings: mean +/- standard deviation (number of assays in brackets); read-out: IC50 Values Cyclic AMP Assay Example 4C
T2 construct: expressed in transfected cells; 293 cells are used elsewhere
T2 sequence (P46095 whole entry): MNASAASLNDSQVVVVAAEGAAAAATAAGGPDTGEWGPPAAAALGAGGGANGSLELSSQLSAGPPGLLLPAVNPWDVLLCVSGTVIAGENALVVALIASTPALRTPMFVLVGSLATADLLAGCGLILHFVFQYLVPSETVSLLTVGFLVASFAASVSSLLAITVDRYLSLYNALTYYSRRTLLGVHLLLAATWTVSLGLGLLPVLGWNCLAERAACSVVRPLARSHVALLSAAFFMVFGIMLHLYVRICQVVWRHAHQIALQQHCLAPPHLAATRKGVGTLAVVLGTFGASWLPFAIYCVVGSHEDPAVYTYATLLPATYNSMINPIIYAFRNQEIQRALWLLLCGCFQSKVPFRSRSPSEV
Excerpt: Using an independent assay approach to provide confirmation of a directly identified candidate compound as set forth above, it is preferred that a confirmation assay then be utilized. In this case, the preferred confirmation assay is membrane-based cyclic AMP (cAMP) assay.
A modified Flash Plate™ Adenylyl Cyclase kit (New England Nuclear; Cat. No. SMP004A) was utilized for confirmation of candidate compounds directly identified as inverse agonists and agonists to endogenous, constitutively activated orphan GPCRs in accordance with the following protocol.
Transfected stable cells were harvested approximately three days after transfection. Membranes were prepared by homogenization of suspended cells in buffer containing 20 mM HEPES, pH 7.4 and 10 mM MgCl2. Homogenization was performed on ice using a Brinkman Polytron™ for approximately 10 seconds. The resulting homogenate was centrifuged at 20,000 rpm for 20 minutes at 4° C. The resulting pellet was then resuspended in buffer containing 20 mM HEPES, pH 7.4 and 0.1 mM EDTA, homogenized for 10 seconds, followed by centrifugation at 20,000 rpm for 20 minutes at 4° C. The resulting pellet can be stored at −80° C. until utilized. On the day of direct identification screening, the membrane pellet is slowly thawed at room temperature, resuspended in buffer containing 20 mM HEPES, pH 7.4, 100 mM NaCl and 10 mM MgCL2, to yield a final protein concentration of 0.60 mg/ml (the resuspended membranes are placed on ice until use).
Candidate compounds identified as per above (if frozen, thawed at room temperature) were added to plate wells (3 μl/well; 12 μM final assay concentration), together with 50 μl Membrane Protein (30 μg/well) and 50 μl of Assay Buffer. This admixture was then incubated for 30 minutes at room temperature, with gentle shaking.
Following the incubation, 100 μl of Detection Buffer was added to each well, followed by incubation for 2-20 hours. Plates were subsequently aspirated and then counted in a Wallac MicroBeta™ plate reader using “Prot. #31” (as per manufacturer instructions).

[1] = Food/water intake and body weight in 24-hour food deprived rats, oral gavage (PO); assay type: in vivo, rat; settings: for body weight gain (FIG. 10C): vehicle about 19.5 grams
Description: Based upon the in vivo data developed, oral bioavailability of compound ARE112 was determined. The compound was administered by oral gavage at doses ranging from 6.75 to 54 mg/kg. The data presented in FIGS. 9A and 9B support the conclusion that oral administration of ARE112 also decreases food intake in both food-deprived and non-food deprived rats. […] In FIG. 9A, rats were deprived 24 hours prior to oral administration of the compound. In this assay, the vehicle-treated rats at 2.5 hours consumed […] of food while injected rats; particularly rats administered with 27 and 54 mg/kg of ARE 112, ate about 6 and 4 grams, respectively. […] (See, FIG. 9A).
Several other GPR6 inverse agonists were also assessed under 24-hour food deprived conditions, with PO administration. The analogs listed below were tested at 200 μmol/kg, which is equivalent to 54 mg/kg. In addition, ARE114 was also assessed at […]. Data are summarized below in Table C:
In a second assay, tested under the same conditions, several other analogs were assessed at 100 μmol/kg.
In FIG. 10, rats were deprived 24 hours prior to oral administration of the compound. In this assay, analogs ARE130, ARE135, ARE136, and ARE140, were administered at a dose of 100 μmol/kg. Three analogs, particularly, ARE130, ARE136 and ARE140 evidenced a slow intake of food (e.g., about 1 to 1.5 grams every two hours) over an eight hour period post-administration; while the vehicle rat consumed about 2 to 2.5 grams food every two hours. Similar to the vehicle rat, analog ARE135, an opened ring structure, evidenced that over an eight hour period post-administration the rats increasingly consumed about 2.5 grams every two hours. (See, FIG. 10A). Furthermore, the body weight of the vehicle rat and administered rats with analog ARE135 gained about 19.5 grams. On the other hand, the closed ring structures evidenced a decrease in body weight gain as follows: ARE112-6 grams, ARE130-9 grams, ARE136-11 grams and ARE140-14 grams. See, FIG. 10C.

[2] = mean +/- standard deviation (number of assays in brackets), read-out: IC50 Values GTP Assay Example 4A
[3] = 200 μmol/kg PO, Table C, vehicle 14.5
[4] = 200 μmol/kg PO, Table C, vehicle 20.3
[5] = 200 μmol/kg PO, Table C, vehicle 22.9
[6] = mean +/- SD (number of assays), read-out: IC50 Values (Table E, GTP Assay of Example 4A)
[7] = 100 μmol/kg PO, second assay, Table D, vehicle 14.0
[8] = 100 μmol/kg PO, second assay, Table D, vehicle 19.25

T1 sequence (P46095 with tags, fused parts or gaps): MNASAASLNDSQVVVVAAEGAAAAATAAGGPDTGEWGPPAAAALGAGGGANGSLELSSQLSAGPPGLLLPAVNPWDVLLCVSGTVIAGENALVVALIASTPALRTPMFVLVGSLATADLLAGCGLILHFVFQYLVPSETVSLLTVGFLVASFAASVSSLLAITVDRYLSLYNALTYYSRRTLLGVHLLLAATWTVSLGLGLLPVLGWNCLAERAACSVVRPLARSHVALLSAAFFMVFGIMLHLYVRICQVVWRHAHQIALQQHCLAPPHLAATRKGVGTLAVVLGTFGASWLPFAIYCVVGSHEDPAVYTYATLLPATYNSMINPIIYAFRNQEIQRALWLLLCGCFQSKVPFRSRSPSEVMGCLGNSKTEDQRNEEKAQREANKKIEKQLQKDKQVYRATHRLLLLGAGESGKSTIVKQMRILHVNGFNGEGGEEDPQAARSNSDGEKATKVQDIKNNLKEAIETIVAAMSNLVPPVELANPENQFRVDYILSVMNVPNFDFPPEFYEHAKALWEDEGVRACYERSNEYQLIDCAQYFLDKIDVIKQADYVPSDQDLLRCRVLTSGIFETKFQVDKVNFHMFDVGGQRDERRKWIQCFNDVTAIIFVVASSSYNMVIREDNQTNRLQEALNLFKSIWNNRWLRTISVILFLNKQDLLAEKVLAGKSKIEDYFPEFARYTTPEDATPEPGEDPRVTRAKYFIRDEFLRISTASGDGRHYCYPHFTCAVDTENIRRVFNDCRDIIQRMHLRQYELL

Row | SMILES | IC50 (GPR6:Gsα-Fusion Protein; [2]) | IC50 (GPR6) | other results
1 | O=C(N=C1SSC2=NCCN21)c1ccccc1 [ARE114, N-(5,6-dihydro-3H-imidazo[2,1-c]-1,2,4-dithiazol-3-ylidene)-benzamide] | 440 nM | 170 nM | Cumulative Food Intake (g) (8 hr post administration) ([1]; 100 μmol/kg PO, Table C, vehicle 14.5): 10.8 g; Body Weight Gain (g) (6 hr post administration) ([1]; 100 μmol/kg PO, Table C, vehicle 20.3): 13.6 g; Cumulative Water Intake (g) (6 hr post administration) ([1]; 100 μmol/kg PO, Table C, vehicle 22.9): 15.3 g; Cumulative Food Intake (g) (8 hr post administration) [1, 3]: 8.68 g; Body Weight Gain (g) (6 hr post administration) [1, 4]: 6.18 g; Cumulative Water Intake (g) (6 hr post administration) [1, 5]: 10.6 g
2 | O=C(N=C1SSC2=NCCN21)c1ccc(Cl)cc1 [ARE120, N-(5,6-dihydro-3H-imidazo[2,1-c]-1,2,4-dithiazol-3-ylidene)-4-chlorobenzamide] | 640 nM | 270 nM | Cumulative Food Intake (g) (8 hr post administration) [1, 3]: 9.88 g; Body Weight Gain (g) (6 hr post administration) [1, 4]: 11.4 g; Cumulative Water Intake (g) (6 hr post administration) [1, 5]: 18.5 g
3 | O=C(N=C1SSC2=NCCN21)c1ccc(F)cc1 [ARE128, N-(5,6-dihydro-3H-imidazo[2,1-c]-1,2,4-dithiazol-3-ylidene)-4-fluorobenzamide] | 370 nM | 200 nM | Cumulative Food Intake (g) (8 hr post administration) [1, 3]: 7.93 g; Body Weight Gain (g) (6 hr post administration) [1, 4]: 4.03 g; Cumulative Water Intake (g) (6 hr post administration) [1, 5]: 8.5 g
4 | O=C(N=C1SSC2=NCCN21)c1cccc(F)c1 [ARE130, N-(5,6-dihydro-3H-imidazo[2,1-c]-1,2,4-dithiazol-3-ylidene)-3-fluorobenzamide] | 220 nM | 240 nM | IC50 (GPR6:Gsα-Fusion Protein; [6]): 220 nM; Cumulative Food Intake (g) (8 hr post administration) [1, 7]: 9.1 g; Body Weight Gain (g) (6 hr post administration) [1, 8]: 9.5 g; Cumulative Water Intake (g) (6 hr post administration) [1, 8]: 9.5 g; water drunk less than the vehicle animal (FIG. 10B) ([1]; 100 μmol/kg oral): about 10 grams; body weight gain (FIG. 10C) ([1]; 100 μmol/kg oral): 9 grams
5 | O=C(N=C1SSC2=NCCN21)c1ccc(F)cc1F [ARE134, N-(5,6-dihydro-3H-imidazo[2,1-c]-1,2,4-dithiazol-3-ylidene)-2,4-difluorobenzamide] | 410 nM | 190 nM | –
6 | O=C(NC(=S)N1CCNC1=S)c1ccc2ccccc2c1 [ARE135, N-(2-thioxo-imidazolidine-1-carbothioyl)-naphthyl-2-carboxamide] | 100000 nM | 710 nM | IC50 (GPR6:Gsα-Fusion Protein; [6]): 100000 nM; Cumulative Food Intake (g) (8 hr post administration) [1, 7]: 13.5 g; Body Weight Gain (g) (6 hr post administration) [1, 8]: 19.5 g; Cumulative Water Intake (g) (6 hr post administration) [1, 8]: 19.5 g; food intake every two hours ([1]; 100 μmol/kg oral, over eight hour period post-administration (FIG. 10A), vehicle about 2 to 2.5 grams): about 2.5 grams; water drunk (FIG. 10B) ([1]; 100 μmol/kg oral, comparable to vehicle): about 19 grams; body weight gain (FIG. 10C) ([1]; 100 μmol/kg oral): about 19.5 grams
7 | O=C(/N=C1\SSC2=NCCN21)c1cccc2ccccc12 [ARE138, N-(5,6-dihydro-3H-imidazo[2,1-c]-1,2,4-dithiazol-3-ylidene)-naphthyl-1-carboxamide] | 450 nM | 130 nM | –
8 | O=C(NC(=S)N1CCNC1=S)c1cc2ccccc2s1 [ARE139, N-(2-thioxo-imidazolidine-1-carbothioyl)-benzothiophen-2-carboxamide] | 260 nM | 4520 nM | –
9 | O=C(NC(=S)N1CCNC1=S)c1ccco1 [ARE143, N-(2-thioxo-imidazolidine-1-carbothioyl)-furan-2-carboxamide] | 68300 nM | 160000 nM | –
10 | O=C(N=C1SSC2=NCCN21)c1ccco1 [ARE144, N-(5,6dihydro-3H-imidazo[2,1-c]-1,2,4-dithiazol-3-ylidene)furan-2-carboxamide] | 250 nM | 110 nM | –
11 | Cc1noc(C)c1C(=O)/N=C1\SSC2=NCCN21 [ARE148] | 460 nM | 350 nM | –
12 | O=C(NC(=S)N1CCNC1=S)c1ccon1 [ARE149, N-(2-thioxo-imidazolidine-1-carbothioyl)-isoxazole-3-carboxamide] | 2430 nM | 5830 nM | –
13 | O=C(N=C1SSC2=NCCN21)c1ccon1 [ARE150, N-(5,6dihydro-3H-imidazo[2,1-c]-1,2,4-dithiazol-3-ylidene)-isoxazole-3-carboxamide] | 330 nM | 100 nM | –
14 | O=C(NC(=S)N1CCNC1=S)c1cccnc1 [ARE155, N-(2-thioxo-imidazolidine-1-carbothioyl)-pyridine-3-carboxamide] | 6560 nM | 850 nM | –
15 | O=C(N=C1SSC2=NCCN21)c1cccnc1 [ARE156, N-(5,6-dihydro-3H-imidazo[2,1-c]-1,2,4-dithiazol-3-ylidene)-pyridine-3-carboxamide] | 670 nM | 133 nM | –
